From ChEMBL document CHEMBL1201862, “PubChem BioAssay data set” (2004)
Where a name gives a salt, the structure may show the parent alone. The source made the active and inactive calls.

Assays:
Beta-lactamase [1] = molecular target: T1, Beta-lactamase (Pseudomonas aeruginosa, UniProt Q79MP6); test: inhibition of IMP-1 beta-lactamase activity – biochemical, epi-absorbance, selectivity assay for VIM-2 inhibitor project, dose response (AID 1920)
Beta-lactamase [2] = molecular target: T1, Beta-lactamase; test: […] counterscreen for selective VIM-2 inhibitors: dose response biochemical high throughput screening assay to identify inhibitors of IMP-1 metallo-beta-lactamase.
[3] = molecular target: Dual specificity tyrosine-phosphorylation-regulated kinase 1A (Rattus norvegicus, UniProt Q63470); format: biochemical, Homo sapiens
Beta-lactamase [4] = molecular target: Beta-lactamase (Salmonella choleraesuis (strain SC-B67), UniProt Q5J463); test: Epi-absorbance-based counterscreen for selective VIM-2 inhibitors: dose response biochemical high throughput screening assay to identify inhibitors of TEM-1 serine-beta-lactamase.
Sequence of Beta-lactamase (Salmonella choleraesuis (strain SC-B67), UniProt Q5J463) (Q5J463 whole entry): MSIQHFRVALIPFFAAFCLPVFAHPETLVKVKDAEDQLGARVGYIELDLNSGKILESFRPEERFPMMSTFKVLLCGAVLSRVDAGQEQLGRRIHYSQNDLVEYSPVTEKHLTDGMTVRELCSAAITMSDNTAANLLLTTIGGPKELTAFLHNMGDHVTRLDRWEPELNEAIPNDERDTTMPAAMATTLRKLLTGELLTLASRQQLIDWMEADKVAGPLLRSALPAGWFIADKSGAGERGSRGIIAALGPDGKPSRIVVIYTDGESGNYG

[5] = blockers of FN fibrillogenesis by fibroblasts – AH1F cells, Alexa488-FN fluorescence, cherry-picks, dose response (AID 1035475); format: functional, cell-based
[6] = activation of miR-122 Renilla sensor silencing – cell-based, Huh7 psiCHECK-miR122, Renilla luciferase, cherry-picked, dose response (AID 651956); format: functional;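 also: huh7 hepatoma cells stably carrying a psiCHECK-2 miR-122 sensor plasmid; renilla luciferase signal reporting endogenous miR-122 activity after 48 h compound exposure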
[7] = viability loss in HEK293 kidney cells – cell-based, cherry-picks, set 5, cytotoxicity control, dose response (AID 1053117); format: functional
[8] = viability loss in HepG2 hepatoma cells – cell-based, cherry-picks, set 5, cytotoxicity control, dose response (AID 1053118); format: functional
[9] = general mammalian cell viability loss – activator set, cherry-pick, cytotoxicity control for miR-122 modulator project, dose response (AID 720690); format: functional, cell-based;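 also: HEK293T human cells scored for general mammalian cytotoxicity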
Nonstructural protein 1 = Nonstructural protein 1 (Influenza A virus, UniProt Q194T2); format: functional, Influenza A virus (A/California/07/2009(H1N1))
Sequence of Nonstructural protein 1 (Q194T2 whole entry): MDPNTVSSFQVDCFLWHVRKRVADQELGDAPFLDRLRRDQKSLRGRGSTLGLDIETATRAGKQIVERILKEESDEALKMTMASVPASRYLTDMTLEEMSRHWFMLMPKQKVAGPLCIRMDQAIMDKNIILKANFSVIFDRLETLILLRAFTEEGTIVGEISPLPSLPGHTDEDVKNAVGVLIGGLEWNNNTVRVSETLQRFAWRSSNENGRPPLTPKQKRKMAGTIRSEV

Albumin = Albumin (Bos taurus, UniProt P02769); test: Counterscreen for inhibitors of T-cell receptor (TCR)-CD3 interaction: Fluorescence-based biochemical high throughput dose response assay to identify inhibitors of T-cell receptor (TCR)-CD3 interaction using a TAMRA-labeled BSA probe.; format: functional
Sequence of Albumin (P02769 whole entry): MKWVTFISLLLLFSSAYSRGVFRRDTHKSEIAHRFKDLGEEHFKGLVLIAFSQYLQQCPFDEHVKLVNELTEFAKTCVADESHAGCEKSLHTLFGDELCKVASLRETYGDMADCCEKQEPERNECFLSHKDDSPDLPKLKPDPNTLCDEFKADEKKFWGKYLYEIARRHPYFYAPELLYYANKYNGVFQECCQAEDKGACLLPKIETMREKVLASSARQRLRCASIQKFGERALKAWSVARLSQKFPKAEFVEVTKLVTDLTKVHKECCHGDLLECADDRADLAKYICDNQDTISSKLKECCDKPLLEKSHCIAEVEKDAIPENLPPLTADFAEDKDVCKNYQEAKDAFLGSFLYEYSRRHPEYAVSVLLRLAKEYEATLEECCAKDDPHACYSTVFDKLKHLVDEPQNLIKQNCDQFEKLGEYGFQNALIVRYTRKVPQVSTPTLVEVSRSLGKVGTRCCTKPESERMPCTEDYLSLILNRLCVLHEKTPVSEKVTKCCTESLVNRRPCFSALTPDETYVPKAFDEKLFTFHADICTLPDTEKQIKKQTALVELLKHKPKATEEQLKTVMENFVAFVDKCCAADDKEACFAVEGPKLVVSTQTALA

[10] = inhibitors of EBV LMP1 NF-kappaB signaling – cell-based, luciferase reporter, luminescence, dry powder, set 2, dose response (AID 624376); format: functional
[11] = inhibition of ADAM10 peptide cleavage – biochemical, FRET peptide substrate, recombinant human ADAM10, selectivity assay for ADAM17 exosite inhibitor project, dose response (AID 743259);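 also: ADAM10 enzyme cleaving a FRET peptide substrate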
[12] = molecular target: Disintegrin and metalloproteinase domain-containing protein 17 (Homo sapiens, UniProt P78536); test: exosite inhibitors of ADAM17, dose response, biochemical (AID 743260)
Sequence of Disintegrin and metalloproteinase domain-containing protein 17 (P78536 whole entry, the tested form may be a part): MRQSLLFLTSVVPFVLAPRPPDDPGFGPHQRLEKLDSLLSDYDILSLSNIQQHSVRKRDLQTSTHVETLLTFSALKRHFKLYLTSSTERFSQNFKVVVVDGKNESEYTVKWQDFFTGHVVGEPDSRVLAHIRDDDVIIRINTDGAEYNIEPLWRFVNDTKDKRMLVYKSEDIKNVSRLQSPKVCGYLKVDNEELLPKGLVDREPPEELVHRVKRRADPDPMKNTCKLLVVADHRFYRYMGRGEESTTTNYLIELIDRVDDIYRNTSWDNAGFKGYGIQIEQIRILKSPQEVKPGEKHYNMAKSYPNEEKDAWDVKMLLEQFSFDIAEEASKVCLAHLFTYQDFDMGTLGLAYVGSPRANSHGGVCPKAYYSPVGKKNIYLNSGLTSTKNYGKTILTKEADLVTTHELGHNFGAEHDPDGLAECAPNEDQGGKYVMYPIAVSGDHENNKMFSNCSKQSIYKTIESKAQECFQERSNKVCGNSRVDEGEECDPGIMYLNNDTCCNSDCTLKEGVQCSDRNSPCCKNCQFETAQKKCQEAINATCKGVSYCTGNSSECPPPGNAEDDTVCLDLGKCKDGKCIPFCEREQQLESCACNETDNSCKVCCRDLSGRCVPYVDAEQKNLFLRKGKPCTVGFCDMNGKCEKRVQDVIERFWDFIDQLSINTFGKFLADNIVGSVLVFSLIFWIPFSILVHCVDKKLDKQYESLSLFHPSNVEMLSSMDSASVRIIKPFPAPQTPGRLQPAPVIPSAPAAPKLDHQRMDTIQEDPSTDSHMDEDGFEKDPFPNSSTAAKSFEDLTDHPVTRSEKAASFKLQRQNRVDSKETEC

fMet-Leu-Phe receptor = fMet-Leu-Phe receptor (Homo sapiens, UniProt P21462); test: formyl peptide receptor binders – dose response (AID 519); format: functional
Sequence of fMet-Leu-Phe receptor (P21462 whole entry): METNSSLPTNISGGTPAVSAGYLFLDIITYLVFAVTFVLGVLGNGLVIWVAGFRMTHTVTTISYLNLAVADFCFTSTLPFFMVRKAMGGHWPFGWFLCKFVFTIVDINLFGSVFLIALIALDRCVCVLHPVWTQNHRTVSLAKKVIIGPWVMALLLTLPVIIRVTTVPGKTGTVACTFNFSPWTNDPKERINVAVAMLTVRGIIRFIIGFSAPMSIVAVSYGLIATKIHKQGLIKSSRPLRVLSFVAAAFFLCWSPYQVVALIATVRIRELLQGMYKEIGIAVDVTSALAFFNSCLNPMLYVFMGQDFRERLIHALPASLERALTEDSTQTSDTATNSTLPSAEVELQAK

Caspase-3 = molecular target: T2, Caspase-3 (Homo sapiens, UniProt P42574); format: functional;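 also: Dose-response selectivity test against caspase-3 for candidate inhibitors of sentrin-specific proteases (SENPs)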
T2 sequence (P42574 whole entry): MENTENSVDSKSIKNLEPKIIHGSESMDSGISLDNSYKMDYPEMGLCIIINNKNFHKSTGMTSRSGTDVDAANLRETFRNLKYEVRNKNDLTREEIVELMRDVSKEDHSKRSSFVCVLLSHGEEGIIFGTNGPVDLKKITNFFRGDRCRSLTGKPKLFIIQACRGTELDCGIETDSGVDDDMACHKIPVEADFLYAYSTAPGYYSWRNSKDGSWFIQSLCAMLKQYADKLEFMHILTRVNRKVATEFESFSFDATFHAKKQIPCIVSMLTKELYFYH

[13] = molecular target: Botulinum neurotoxin type F (Clostridium botulinum, UniProt P30996); test: High-throughput multiplex microsphere dose response for inhibitors of toxin protease, specifically Botulinum neurotoxin light chain F protease, compounds from Cherry Pick 02.; format: functional; conditions: read-out: EC50_MICROM
Sequence of Botulinum neurotoxin type F (P30996 1-436 limits assumed): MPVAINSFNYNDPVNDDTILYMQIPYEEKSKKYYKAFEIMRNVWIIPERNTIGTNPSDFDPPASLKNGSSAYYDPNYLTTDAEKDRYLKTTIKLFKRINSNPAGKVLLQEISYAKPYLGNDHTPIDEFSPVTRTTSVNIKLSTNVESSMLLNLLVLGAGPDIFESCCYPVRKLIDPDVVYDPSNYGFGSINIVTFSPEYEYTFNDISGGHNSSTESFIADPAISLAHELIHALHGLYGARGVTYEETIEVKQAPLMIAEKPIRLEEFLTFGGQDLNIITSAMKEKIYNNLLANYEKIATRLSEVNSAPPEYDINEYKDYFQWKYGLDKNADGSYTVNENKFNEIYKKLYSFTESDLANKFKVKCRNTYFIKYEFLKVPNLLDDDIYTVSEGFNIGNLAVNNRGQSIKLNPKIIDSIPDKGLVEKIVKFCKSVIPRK

[14] = molecular target: T3, Sentrin-specific protease 7 (Homo sapiens, UniProt Q9BQF6); format: functional;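 also: Luminescence-based dose-response confirmation of ultra-high-throughput screening hits, measuring inhibition of SENP7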
T3 sequence (Q9BQF6 whole entry): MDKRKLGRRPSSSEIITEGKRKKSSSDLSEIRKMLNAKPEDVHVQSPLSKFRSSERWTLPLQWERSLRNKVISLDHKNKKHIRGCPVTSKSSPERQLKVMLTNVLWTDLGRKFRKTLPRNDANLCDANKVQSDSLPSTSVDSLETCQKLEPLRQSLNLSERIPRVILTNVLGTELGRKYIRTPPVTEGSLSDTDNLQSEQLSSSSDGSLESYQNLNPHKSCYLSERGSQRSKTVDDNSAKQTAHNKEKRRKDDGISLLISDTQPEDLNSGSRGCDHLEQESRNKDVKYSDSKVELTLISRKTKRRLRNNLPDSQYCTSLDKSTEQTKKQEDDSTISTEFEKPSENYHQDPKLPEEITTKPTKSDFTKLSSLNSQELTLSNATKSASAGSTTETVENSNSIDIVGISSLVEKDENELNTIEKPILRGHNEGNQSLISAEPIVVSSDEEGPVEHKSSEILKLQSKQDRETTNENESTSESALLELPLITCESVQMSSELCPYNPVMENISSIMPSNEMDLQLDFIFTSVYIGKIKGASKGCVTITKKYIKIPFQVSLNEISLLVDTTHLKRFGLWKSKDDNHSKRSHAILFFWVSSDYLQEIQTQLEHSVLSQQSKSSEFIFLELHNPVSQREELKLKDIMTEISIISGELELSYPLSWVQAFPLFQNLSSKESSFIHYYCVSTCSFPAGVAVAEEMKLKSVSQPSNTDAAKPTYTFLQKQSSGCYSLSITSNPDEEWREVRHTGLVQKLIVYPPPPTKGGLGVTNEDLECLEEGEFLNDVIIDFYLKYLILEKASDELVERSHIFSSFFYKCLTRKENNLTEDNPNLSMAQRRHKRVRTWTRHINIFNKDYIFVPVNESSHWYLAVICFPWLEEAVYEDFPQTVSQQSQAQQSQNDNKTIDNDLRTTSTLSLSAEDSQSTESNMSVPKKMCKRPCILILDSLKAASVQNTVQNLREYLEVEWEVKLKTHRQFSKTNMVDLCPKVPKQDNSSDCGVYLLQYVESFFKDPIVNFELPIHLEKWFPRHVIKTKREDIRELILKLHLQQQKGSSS

[15] = molecular target: T4, Sentrin-specific protease 8 (Homo sapiens, UniProt Q96LD8); format: functional;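 also: luminescence read-out of SENP8 inhibition, dose-response confirmation following an ultra-high-throughput screen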
T4 sequence (Q96LD8 whole entry): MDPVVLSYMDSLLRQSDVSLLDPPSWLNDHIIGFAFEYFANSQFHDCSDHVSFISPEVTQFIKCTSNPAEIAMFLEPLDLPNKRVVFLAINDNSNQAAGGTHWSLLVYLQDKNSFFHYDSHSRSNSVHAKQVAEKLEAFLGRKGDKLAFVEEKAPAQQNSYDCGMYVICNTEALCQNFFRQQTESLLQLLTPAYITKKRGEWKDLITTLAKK

[16] = molecular target: T5, Sentrin-specific protease 6 (Homo sapiens, UniProt Q9GZR1); format: functional;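 also: Luminescence-based dose-response confirmatory assay of SENP6 inhibition, following up an ultra-high-throughput screen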
T5 sequence (Q9GZR1 whole entry): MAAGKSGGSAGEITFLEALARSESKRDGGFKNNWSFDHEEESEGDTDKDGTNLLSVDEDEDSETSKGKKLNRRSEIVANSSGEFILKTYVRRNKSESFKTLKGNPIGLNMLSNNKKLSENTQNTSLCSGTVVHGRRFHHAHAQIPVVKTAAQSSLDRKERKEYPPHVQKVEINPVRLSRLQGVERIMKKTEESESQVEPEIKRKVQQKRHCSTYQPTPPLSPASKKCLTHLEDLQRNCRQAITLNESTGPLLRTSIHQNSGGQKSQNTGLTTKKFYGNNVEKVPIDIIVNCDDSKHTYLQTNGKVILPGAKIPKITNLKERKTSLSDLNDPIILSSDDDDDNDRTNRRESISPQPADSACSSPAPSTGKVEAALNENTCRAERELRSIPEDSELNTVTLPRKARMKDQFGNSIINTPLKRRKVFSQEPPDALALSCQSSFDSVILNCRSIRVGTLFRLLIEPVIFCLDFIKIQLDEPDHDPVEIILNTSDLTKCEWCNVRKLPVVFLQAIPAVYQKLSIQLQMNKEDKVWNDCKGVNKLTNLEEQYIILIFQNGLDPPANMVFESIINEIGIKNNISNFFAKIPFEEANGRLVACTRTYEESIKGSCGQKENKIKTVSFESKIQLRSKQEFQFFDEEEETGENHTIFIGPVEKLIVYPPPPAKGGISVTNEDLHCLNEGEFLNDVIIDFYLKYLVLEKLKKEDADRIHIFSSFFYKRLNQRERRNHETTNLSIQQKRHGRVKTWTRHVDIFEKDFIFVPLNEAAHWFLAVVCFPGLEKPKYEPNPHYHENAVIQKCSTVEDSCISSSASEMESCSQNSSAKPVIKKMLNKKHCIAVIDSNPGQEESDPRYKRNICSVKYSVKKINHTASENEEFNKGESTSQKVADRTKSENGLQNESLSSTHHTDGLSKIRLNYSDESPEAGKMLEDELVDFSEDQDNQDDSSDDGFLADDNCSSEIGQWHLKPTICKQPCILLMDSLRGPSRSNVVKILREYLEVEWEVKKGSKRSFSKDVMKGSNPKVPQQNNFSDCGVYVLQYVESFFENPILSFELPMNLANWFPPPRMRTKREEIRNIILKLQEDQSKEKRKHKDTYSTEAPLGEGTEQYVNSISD

[17] = molecular target: T6, Oxysterols receptor LXR-beta (Homo sapiens, UniProt P55055); format: functional, cell-based;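 also: agonist activity at LXR measured by a cell-based luminescence readout across a dose range, run as a counterscreen for daf-12 agonists; HEK293 cells with Gal4-LXR fusion and GAL4-driven luciferase reporter; potency for activation of Gal4-LXR reporter so compounds are agonists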
T6 sequence (P55055 whole entry): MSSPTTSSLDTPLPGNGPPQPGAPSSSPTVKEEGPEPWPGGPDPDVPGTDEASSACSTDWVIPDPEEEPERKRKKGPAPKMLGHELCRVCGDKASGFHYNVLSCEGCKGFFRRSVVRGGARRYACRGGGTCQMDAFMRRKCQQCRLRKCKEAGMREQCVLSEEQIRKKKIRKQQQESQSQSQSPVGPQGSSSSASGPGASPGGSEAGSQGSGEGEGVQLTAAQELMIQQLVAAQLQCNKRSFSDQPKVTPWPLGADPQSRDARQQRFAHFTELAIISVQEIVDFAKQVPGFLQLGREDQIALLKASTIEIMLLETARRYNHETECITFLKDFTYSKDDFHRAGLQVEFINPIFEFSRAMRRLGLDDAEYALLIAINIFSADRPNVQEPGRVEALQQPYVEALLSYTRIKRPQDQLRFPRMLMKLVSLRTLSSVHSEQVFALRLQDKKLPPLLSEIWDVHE

[18] = viability loss in A549 lung cancer cells – cell-based, cherry-picks, […], cytotoxicity control, dose response (AID 1053119); format: functional
[19] = anti-trypanosomal activity in BESM host cells – imaging, CA-I/72 strain, bovine embryo skeletal muscle, dry powder, dose response (AID 651885); format: functional, cell-based
[20] = Inhibition of Plasmodium falciparum NF54 Measured in Cell-Based System Using Plate Reader - 2138-11_Inhibitor_Dose_CherryPick_Activity.; format: functional
[21] = intracellular Trypanosoma cruzi inhibitors in host cells – cell-based, plate reader, cherry-pick samples, set 3, dose response (AID 651818); format: functional;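 also: compounds incubated with infected cells for about four days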
[22] = African trypanosome bloodstream form growth inhibition – STIB900 strain, plate reader, cherry pick, dose response (AID 651893); format: functional, cell-based, Trypanosoma brucei rhodesiense; conditions: Trypanosoma brucei
[23] = mouse fibroblast viability loss – cell-based, cherry-pick samples, set 2, cytotoxicity control for T. cruzi growth inhibitor project, dose response (AID 651817); format: functional; conditions: NIH3T3
[24] = antileishmanial activity on axenic amastigotes – plate reader, cherry pick, dose response (AID 651891); format: functional, cell-based; conditions: Leishmania donovani
[25] = L6 myocyte viability loss – cell-based, plate reader, cherry-pick, cytotoxicity control, dose response (AID 651896); format: functional
[26] = Inhibition of T. cruzi Tulahuen strain amastigotes in L-6 muscle cells Measured in Cell-Based and Microorganism Combination System Using Plate Reader - 2138-03_Inhibitor_Dose_CherryPick_Activity.; format: functional; conditions: Rattus norvegicus, L6
cells = conditions: A549
[27] = T. cruzi growth inhibition in host cells, dose response, cell-based, plate reader, dry powder, set 2 (AID 652275); format: functional

T1 sequence (Q79MP6 whole entry): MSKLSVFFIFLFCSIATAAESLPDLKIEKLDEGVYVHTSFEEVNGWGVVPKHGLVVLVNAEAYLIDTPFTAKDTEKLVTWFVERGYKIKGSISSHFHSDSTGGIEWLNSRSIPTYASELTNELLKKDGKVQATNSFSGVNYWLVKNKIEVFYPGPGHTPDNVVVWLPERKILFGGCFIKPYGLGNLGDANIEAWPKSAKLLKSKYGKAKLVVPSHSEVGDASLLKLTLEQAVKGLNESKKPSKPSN

With `O=C(O)c1[nH]c2ccc(Br)cc2c1CCN1C(=O)c2cccc([N+](=O)[O-])c2C1=O` the IC50 (Beta-lactamase [1]) was > 59.6 µM (inactive), the IC50 (Beta-lactamase [2]) was > 59.6 µM (inactive) and the AC50 [3] was 23.1 µM (active). The IC50 (Beta-lactamase [4]) was > 59.6 µM (inactive).
In the case of `CO[C@@H]1CN(C)C(=O)c2cc(NC(=O)Nc3cc(Cl)cc(Cl)c3)ccc2OC[C@H](C)NC[C@H]1C`, the AC50 [5] is reported as 29 µM (active), the AC50 [6] is reported as 10.1 µM (active) and the AC50 [7] is reported as 12.8 µM (active). For the same molecule, the AC50 [8] was 10.9 µM (active) and the AC50 [9] was 17.6 µM (active).
For `O=C(NC(=S)NNC(=O)c1ccccc1O)c1cccnc1`, the IC50 (Nonstructural protein 1) was 7.11 µM (active) and the IC50 (Albumin) was > 94.1 µM (inactive).
`C[C@@H](NC(=O)C[C@H]1C=C[C@@H](NC(=O)Cc2ccccn2)[C@H](CO)O1)c1ccccc1` showed an AbsAC35 [10] of 52.1 µM.
In the case of `CCOc1ccc(CNC(=S)N/N=C/c2ccc(OC)c(OC)c2)cc1`, the IC50 [11] is reported as > 69.5 µM (inactive) and the IC50 [12] is reported as > 69.5 µM (inactive).
With `CCN(CCCc1ccccc1)CCCc1ccccc1` [ALVERINE CITRATE] the Ki (fMet-Leu-Phe receptor) was > 66.7 µM (inactive).
For `CCc1cccc2c(C(=O)COC(=O)c3ccccc3)c[nH]c12`, the IC50 (Caspase-3) was 49.9 µM (active), the EC50 [13] was > 20 µM (inactive) and the IC50 [14] was 4.08 µM (active). The IC50 [15] was > 100 µM (inactive) and the IC50 [16] was > 100 µM (inactive).
For `Cn1c(O)c(N=NC(=O)c2ccco2)c2ccccc21`, the EC50 [17] was > 67.5 µM (inactive).
For `O=C(NCc1ccccc1)c1ccc(-c2cn[nH]c2)c2ccoc12`, the AC50 [5] was 0.142 µM (active) and the AC50 [18] was > 52 µM (inactive).
In the case of `C[C@@H]1CN([C@@H](C)CO)C(=O)c2cccc(NC(=O)c3ccncc3)c2O[C@H]1CN(C)Cc1ccc(-c2ccccc2)cc1`, the IC50 [19] is reported as 0.146 µM (active), the IC50 [20] is reported as 1.2 µM (active) and the AC50 [21] is reported as 0.08 µM (active). The IC50 [22] was 0.729 µM (active), the AC50 [23] was 21.9 µM (active) and the IC50 [24] was 13.3 µM (inactive). The IC50 [25] was 13.5 µM (active) and the IC50 [26] was 1.2 µM (active).
In the case of `Fc1ccc(-c2nc3ccccn3c2NCc2ccc3c(c2)OCO3)cc1`, the AC50 (cells) is reported as > 52 µM (inactive).
With `C[C@H]1CN([C@@H](C)CO)C(=O)c2cccc(NC(=O)c3ccncc3)c2O[C@@H]1CN(C)Cc1ccccc1Cl` the AC50 [27] was 0.165 µM (active).
